#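 All cell lines were grown in 96-well plates and treated with compound for 48 hours. GI50: concentration for 50% inhibition of growth.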 Calls of active or inactive are those of the source. No stated cut-off is given here; in the data, active = GI50 up to about 1.1 µM and inactive = higher.
# Tests used:
# Experiment in all cases: NCI tumour cell line growth inhibition, 48 h
# [1] = tested on: 786-0
# [2] = tested on: A498
# [3] = tested on: A549
# [4] = tested on: ACHN
# [5] = tested on: CAKI-1
# [6] = tested on: CCRF-CEM
# [7] = tested on: COLO 205
# [8] = tested on: DLD-1
# [9] = tested on: DMS-114
# [10] = tested on: DMS-273
# [11] = tested on: EKVX
# [12] = tested on: HCC 2998
# [13] = tested on: HCT-116
# [14] = tested on: HCT-15
# [15] = tested on: HL-60
# [16] = tested on: HOP-18
# [17] = tested on: HOP-62
# [18] = tested on: HOP-92
# [19] = tested on: HT-29
# [20] = tested on: IGROV-1
# [21] = tested on: K562
# [22] = tested on: KM-20L2
# [23] = tested on: KM12
# [24] = tested on: LOX IMVI
# [25] = tested on: LXFL 529
# [26] = tested on: M14
# [27] = tested on: M19-MEL
# [28] = tested on: MOLT-4
# [29] = tested on: Malme-3M
# [30] = tested on: NCI-H226
# [31] = tested on: NCI-H23
# [32] = tested on: NCI-H460
# [33] = tested on: NCI-H522
# [34] = tested on: OVCAR-3
# [35] = tested on: OVCAR-4
# [36] = tested on: OVCAR-5
# [37] = tested on: OVCAR-8
# [38] = tested on: RPMI-8226
# [39] = tested on: RXF 393
# [40] = tested on: SF-268
# [41] = tested on: SF-295
# [42] = tested on: SF-539
# [43] = tested on: SK-MEL-28
# [44] = tested on: SK-MEL-2
# [45] = tested on: SK-MEL-5
# [46] = tested on: SN12C
# [47] = tested on: SNB-19
# [48] = tested on: SNB-75
# [49] = tested on: SNB-78
# [50] = tested on: SR
# [51] = tested on: SW-620
# [52] = tested on: TK-10
# [53] = tested on: U-251
# [54] = tested on: UACC-257
# [55] = tested on: UACC-62
# [56] = tested on: UO-31
# [57] = tested on: SK-OV-3
compound,measurement,setting,value
O=[N+]([O-])CCc1cccc([N+](=O)[O-])c1,GI50,[1],> 100 µM (inactive)
same,GI50,[2],> 100 µM (inactive)
same,GI50,[3],> 100 µM (inactive)
same,GI50,[4],> 100 µM (inactive)
same,GI50,[5],> 100 µM (inactive)
same,GI50,[6],> 100 µM (inactive)
same,GI50,[7],> 100 µM (inactive)
same,GI50,[8],> 100 µM (inactive)
same,GI50,[9],> 100 µM (inactive)
same,GI50,[10],> 100 µM (inactive)
same,GI50,[11],> 100 µM (inactive)
same,GI50,[12],> 100 µM (inactive)
same,GI50,[13],> 100 µM (inactive)
same,GI50,[14],> 100 µM
same,GI50,[15],> 100 µM (inactive)
same,GI50,[16],> 100 µM (inactive)
same,GI50,[17],> 100 µM (inactive)
same,GI50,[18],> 100 µM (inactive)
same,GI50,[19],> 100 µM (inactive)
same,GI50,[20],> 100 µM (inactive)
same,GI50,[21],> 100 µM (inactive)
same,GI50,[22],> 100 µM (inactive)
same,GI50,[23],> 100 µM (inactive)
same,GI50,[24],> 100 µM (inactive)
same,GI50,[25],> 100 µM (inactive)
same,GI50,[26],> 100 µM (inactive)
same,GI50,[27],> 100 µM (inactive)
same,GI50,[28],> 100 µM (inactive)
same,GI50,[29],> 100 µM (inactive)
same,GI50,[30],> 100 µM (inactive)
same,GI50,[31],> 100 µM (inactive)
same,GI50,[32],> 100 µM (inactive)
same,GI50,[33],> 100 µM (inactive)
same,GI50,[34],> 100 µM (inactive)
same,GI50,[35],> 100 µM (inactive)
same,GI50,[36],> 100 µM (inactive)
same,GI50,[37],> 100 µM (inactive)
same,GI50,[38],> 100 µM (inactive)
same,GI50,[39],> 100 µM (inactive)
same,GI50,[40],> 100 µM (inactive)
same,GI50,[41],> 100 µM (inactive)
same,GI50,[42],> 100 µM (inactive)
same,GI50,[43],> 100 µM (inactive)
same,GI50,[44],> 100 µM (inactive)
same,GI50,[45],> 100 µM (inactive)
same,GI50,[46],> 100 µM (inactive)
same,GI50,[47],> 100 µM (inactive)
same,GI50,[48],> 100 µM (inactive)
same,GI50,[49],> 100 µM (inactive)
same,GI50,[50],> 100 µM (inactive)
same,GI50,[51],9.44 µM (inactive)
same,GI50,[52],> 100 µM (inactive)
same,GI50,[53],> 100 µM (inactive)
same,GI50,[54],> 100 µM (inactive)
same,GI50,[55],> 100 µM (inactive)
same,GI50,[56],> 100 µM (inactive)
C1CSCCSCCCS[C@@H]2CCCCC2SC1 (stereo partly specified),GI50,[1],> 100 µM (inactive)
same,GI50,[2],> 100 µM (inactive)
same,GI50,[3],> 100 µM (inactive)
same,GI50,[4],> 100 µM (inactive)
same,GI50,[5],> 100 µM (inactive)
same,GI50,[6],20.8 µM (inactive)
same,GI50,[7],52.5 µM (inactive)
same,GI50,[8],> 100 µM (inactive)
same,GI50,[9],28.2 µM (inactive)
same,GI50,[10],> 100 µM (inactive)
same,GI50,[11],> 100 µM (inactive)
same,GI50,[12],> 100 µM (inactive)
same,GI50,[13],> 100 µM (inactive)
same,GI50,[14],15.4 µM
same,GI50,[15],44.3 µM (inactive)
same,GI50,[16],> 100 µM (inactive)
same,GI50,[17],> 100 µM (inactive)
same,GI50,[18],65.2 µM (inactive)
same,GI50,[19],> 100 µM (inactive)
same,GI50,[20],> 100 µM (inactive)
same,GI50,[21],24.3 µM (inactive)
same,GI50,[22],> 100 µM (inactive)
same,GI50,[23],> 100 µM (inactive)
same,GI50,[24],24.2 µM (inactive)
same,GI50,[25],> 100 µM (inactive)
same,GI50,[26],> 100 µM (inactive)
same,GI50,[27],> 100 µM (inactive)
same,GI50,[29],> 100 µM (inactive)
same,GI50,[30],> 100 µM (inactive)
same,GI50,[31],> 100 µM (inactive)
same,GI50,[32],44.1 µM (inactive)
same,GI50,[33],25.9 µM (inactive)
same,GI50,[34],> 100 µM (inactive)
same,GI50,[35],> 100 µM (inactive)
same,GI50,[36],> 100 µM (inactive)
same,GI50,[37],> 100 µM (inactive)
same,GI50,[38],21 µM (inactive)
same,GI50,[39],> 100 µM (inactive)
same,GI50,[40],> 100 µM (inactive)
same,GI50,[41],> 100 µM (inactive)
same,GI50,[42],> 100 µM (inactive)
same,GI50,[43],> 100 µM (inactive)
same,GI50,[44],> 100 µM (inactive)
same,GI50,[45],> 100 µM (inactive)
same,GI50,[57],> 100 µM (inactive)
same,GI50,[46],72.4 µM (inactive)
same,GI50,[47],> 100 µM (inactive)
same,GI50,[48],> 100 µM (inactive)
same,GI50,[49],> 100 µM (inactive)
same,GI50,[51],20.1 µM (inactive)
same,GI50,[52],> 100 µM (inactive)
same,GI50,[53],> 100 µM (inactive)
same,GI50,[54],> 100 µM (inactive)
same,GI50,[55],> 100 µM (inactive)
same,GI50,[56],> 100 µM (inactive)

# From ChEMBL document CHEMBL1201862, “PubChem BioAssay data set” (2004)
